Assay results: PubChem BioAssay AID977628 (Broad Institute, 2014)
Inconclusive results are not listed. Active and inactive are the calls of the source.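 The calls were made as follows: active = compound lowering the normal-ribosome reporter at least twice as much as the humanized-ribosome reporter, growth loss under a set limit; inconclusive = no clear call, values can overlap the other calls; inactive = the rest.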

Test system: E. coli WT GFP strain growth, fluorescence, 24 h
Test: E. coli growth inhibition, wild-type GFP versus h24 humanized RFP strain, dose response, h24 mutant RFP vs wild-type GFP, cherry-pick (AID 977628)

| SMILES | AC50 |
| --- | --- |
| O=C(O)C1CCCCC1C(=O)Nc1ccc(OCc2ccccc2)cc1 (configuration not stated) | > 100 µM (inactive) |
| COc1ccc(NS(=O)(=O)c2ccc(Cl)c(NC(=O)c3ccccc3F)c2)cc1 | > 100 µM (inactive) |
| O=C(O)CC1(CC(=O)NCc2ccc(-c3cccs3)cc2)CCCCC1 | > 100 µM (inactive) |
| COc1ccc(OC)c(N(CC(=O)Nc2ccccc2F)S(=O)(=O)c2ccccc2)c1 | > 100 µM (inactive) |
| O=S(=O)(c1ccc(Cl)cc1)N1CCN=C1SCc1cccc(Cl)c1 | > 100 µM (inactive) |
| CSc1ccccc1NC(=O)c1ccccc1N(Cc1ccccc1)S(C)(=O)=O | > 100 µM (inactive) |
| O=C(CN1CCC(n2nnc3cc(F)ccc32)CC1)N1CCc2ccccc2C1 | > 100 µM (inactive) |
| CCc1nc2ccccc2n1CCc1ccccc1 | > 100 µM (inactive) |
| COc1ccc2[nH]cc(CCNC(=O)C3CC(=O)N(c4ccc(Cl)cc4)C3)c2c1 (configuration not stated) | > 100 µM (inactive) |
| Cc1nnn(C23C[C@@H]4C[C@@H](CC(C(=O)N5CCN(c6ccccc6)CC5)(C4)C2)C3)n1 | > 100 µM (inactive) |
| COc1ccc(CNc2cc([N+](=O)[O-])ccc2OC)cc1 | > 100 µM (inactive) |
| CC(=O)N1CCN(c2nc(-c3cccs3)nc3ccccc23)CC1 | > 100 µM (inactive) |
| CCOc1ccc(OCc2cccc(C(=O)O)c2)cc1 | > 100 µM (inactive) |
| COc1ccc(NC(=O)CN(C)C(=O)c2cc(C3CC3)nn2-c2ccccc2)cc1 | > 100 µM (inactive) |
| O=C(c1cc(COc2c(F)cccc2F)on1)N1C[C@H]2CC[C@H]1C2 | > 100 µM (inactive) |
| CCN(CC)S(=O)(=O)c1cccc(NC(=O)CNc2cccc(S(=O)(=O)N3CCCC3)c2)c1 | > 100 µM (inactive) |
| Cc1sc(NC(=O)CN2CCOCC2)nc1-c1ccc2c(c1)CCN2S(=O)(=O)c1ccccc1 | > 100 µM (inactive) |
| CC(C)=C(c1ccc(Cl)cc1)c1c(N)ncnc1N | > 100 µM (inactive) |
| Nc1nn(-c2ccccc2)c2ccc([N+](=O)[O-])cc12 | > 100 µM (inactive) |
| O=C(Cc1cccc2ccccc12)Nc1ccccc1C(=O)O | > 100 µM (inactive) |
| S=c1[nH]nc(-c2ccc3ccccc3n2)n1-c1ccc2c(c1)OCCO2 | > 100 µM (inactive) |
| O=C(O)CSc1nnc(-c2ccc(Cl)cc2Cl)n1-c1ccc(Br)cc1 | > 100 µM (inactive) |
| Nc1nc(Nc2ccccc2F)nc(N2CCOCC2)c1[N+](=O)[O-] | > 100 µM (inactive) |
| Cc1ccccc1S(=O)(=O)c1cc2ccccc2nc1N | > 100 µM (inactive) |
| Cc1nc(Sc2ccccc2)c(C#N)c(C)c1[N+](=O)[O-] | > 100 µM (inactive) |

| SMILES | AC50 |
| --- | --- |
| COc1cc(OC)cc(C(=O)N[C@H](C(=O)OCC(=O)Nc2ccc(F)c(F)c2F)C(C)C)c1 | > 100 µM (inactive) |
| CCOC(=O)C1CCCN(C(=O)c2csc(-c3ccc4c(c3)CCO4)n2)C1 (configuration not stated) | > 100 µM (inactive) |
| C=CCN(c1ccccc1)S(=O)(=O)c1cccc2cccnc12 | > 100 µM (inactive) |
| N#Cc1ccc(OCC(=O)N2CCN(S(=O)(=O)c3ccc(Cl)s3)CC2)cc1 | > 100 µM (inactive) |
| Cc1nn(C(C)(C)C)c(OC(=O)CC(C)C)c1S(=O)(=O)c1ccccc1 | > 100 µM (inactive) |
| O=C(c1cc(COc2ccc(F)cc2F)on1)N1CCCC(c2ccccc2)C1 (configuration not stated) | > 100 µM (inactive) |
| COc1cccc(OC)c1OCCCOc1cccc2cccnc12 | > 100 µM (inactive) |
| O=C1NC(=O)C2(Cc3cc([N+](=O)[O-])ccc3N3CCN(C(=O)c4ccccc4)CC32)C(=O)N1 (configuration not stated) | > 100 µM (inactive) |
| CCN(C(=O)COC(=O)c1ccc([N+](=O)[O-])o1)c1cccc2ccccc12 | > 100 µM (inactive) |
| CCCCCCCNC(=O)c1ccc(N2CCC3(CC2)OCCO3)c([N+](=O)[O-])c1 | > 100 µM (inactive) |
| CC1Sc2ccc(S(=O)(=O)NCc3ccccc3)cc2NC1=O (configuration not stated) | > 100 µM (inactive) |
| Cc1ccc(S(=O)(=O)N2CC(=O)Nc3ccccc32)cc1C | > 100 µM (inactive) |
| COCc1nnc(NC(=O)c2ccc(S(=O)(=O)N3CCCC3)cc2)o1 | > 100 µM (inactive) |
| O=C(O)c1nn2c(C(F)(F)F)cc(-c3cccs3)nc2c1Cl | > 100 µM (inactive) |
| COc1ccccc1-c1ccc(SCc2ccc(F)cc2)nn1 | > 100 µM (inactive) |
| COc1cccc(NC(=O)c2ccc(-c3ccc([N+](=O)[O-])cc3)o2)c1 | > 100 µM (inactive) |
| COc1ccc(-c2csc3ncn(-c4ccc(C)cc4)c(=O)c23)cc1OC | > 100 µM (inactive) |
| O=C(c1ccccc1)N(c1ccccc1)c1nccc2ccccc12 | > 100 µM (inactive) |
| Nc1nc(=S)ss1 | > 100 µM (inactive) |
| COc1cc2[nH]c(=S)nc(NCCc3ccc(C)cc3)c2cc1OC | > 100 µM (inactive) |
| Cc1ccoc1C(=O)Nc1ccc2ccccc2c1 | > 100 µM (inactive) |
| O=C(O)CCN(Cc1ccccc1)S(=O)(=O)c1ccccc1Cl | > 100 µM (inactive) |
| CC(CCC(=O)O)C1CC[C@@]2(C)C3C(=O)CC4C(C)(C)C(O)CC[C@]4(C)C3C(=O)C[C@]12C (some centres not stated) | > 100 µM (inactive) |
| O=C(Nc1cccc(-c2cn3ccccc3n2)c1)c1ccccc1 | > 100 µM (inactive) |
| CCOC(=O)c1csc(NC(=O)CC2CCCC2)n1 | > 100 µM (inactive) |

| SMILES | AC50 |
| --- | --- |
| CCCn1nnnc1NCc1ccccc1OCc1cccs1 | > 100 µM (inactive) |
| CC(NCc1ccc(S(N)(=O)=O)cc1)C(=O)Nc1cc([N+](=O)[O-])ccc1Cl (configuration not stated) | > 100 µM (inactive) |
| COc1ccc(CNS(=O)(=O)c2ccc3c(c2)NC(=O)C(C)S3)cc1 (configuration not stated) | > 100 µM (inactive) |
| CCc1ccc(OCC(=O)NCc2ccco2)c(Br)c1 | > 100 µM (inactive) |
| CCCCn1c(NS(=O)(=O)c2ccc(C)cc2)c(C(=O)OCC)c2nc3ccccc3nc21 | > 100 µM (inactive) |
| O=C(O)c1ccc(Oc2ccc([N+](=O)[O-])cc2)c([N+](=O)[O-])c1 | > 100 µM (inactive) |
| Cc1ccc(N2C(=O)NC(NS(=O)(=O)c3ccccc3)(C(F)(F)F)C2=O)cc1C (configuration not stated) | > 100 µM (inactive) |
| O=C(c1cnc(Cc2c[nH]c3ccccc23)c(I)c1)N1CCCCC1 | > 100 µM (inactive) |
| O=C(CCC(=O)c1cccs1)OCC(=O)c1ccc(Cl)s1 | > 100 µM (inactive) |
| O=C(CSc1ccccc1)Nc1cccc(NC(=O)c2ccco2)c1 | > 100 µM (inactive) |
| CCOC(=O)c1cccc(OS(=O)(=O)Cc2ccccc2)c1 | > 100 µM (inactive) |
| O=C(c1ccc(Cl)cc1)N1CCN(c2cccc3[nH]ccc23)CC1 | > 100 µM (inactive) |
| Fc1ccc(-c2nnc(-c3ccc4ccccc4c3)o2)cc1 | > 100 µM (inactive) |
| CSc1ccc(CN(C)CC(=O)NC(C)c2ccccc2)cc1 (configuration not stated) | > 100 µM (inactive) |
| CC(C)(C)c1ccc(N2C(=O)CSC2c2cccnc2)cc1 (configuration not stated) | > 100 µM (inactive) |
| Cc1cc(C(=O)NCCC2=CCCCC2)ccc1[N+](=O)[O-] | > 100 µM (inactive) |
| O=c1[nH]c(C2CCN(S(=O)(=O)c3ccc4c(c3)OCCO4)CC2)nc2c1nnn2Cc1ccccc1F | > 100 µM (inactive) |
| Cc1ccccc1OCC(O)Cn1c(NCc2ccco2)nc2c1c(=O)n(C)c(=O)n2C (configuration not stated) | > 100 µM (inactive) |
| Fc1cccc(Cc2c(-c3ccco3)nc3c4ccccc4ccn23)c1 | > 100 µM (inactive) |
| COc1ccc(C(=O)N(c2ccccc2)c2nccc3ccccc23)cc1OC | > 100 µM (inactive) |
| COCCNc1cc(-c2ccccc2)nc2cc(-c3cccc(F)c3)nn12 | > 100 µM (inactive) |
| COc1ccc(N2C(=O)C3C(C2=O)C3(c2ccccc2)c2ccccc2)cc1 (configuration not stated) | > 100 µM (inactive) |
| O=S1(=O)N[C@H](Cc2ccccc2)COc2cccc(N3CCC[C@H]3CO)c21 | > 100 µM (inactive) |
| COc1ccc(CNc2ncnc3cc(OC)c(OC)cc23)cc1OC | > 100 µM (inactive) |
| Cc1cccc(OCCC(=O)N(C)CC(=O)Nc2cccc3ccccc23)c1 | > 100 µM (inactive) |

| SMILES | AC50 |
| --- | --- |
| COC(=O)c1ccc2nc(-c3cccc(Br)c3)c(Cc3ccsc3)n2c1 | > 100 µM (inactive) |
| O=C(Nc1ccc2c(c1)OCO2)c1ccc([N+](=O)[O-])cc1[N+](=O)[O-] | > 100 µM (inactive) |
| O=C(C[n+]1cc(-c2ccc(Cl)c(Cl)c2)n2c1CCC2)OCc1ccccc1 | > 100 µM (inactive) |
| COc1ccc2c(c1)c(C(C)=O)c(C)n2CCc1ccc(OC)c(OC)c1 | > 100 µM (inactive) |
| CC1=Nc2cc(C(=O)NCC3CCCO3)ccc2Sc2ccc(Br)cc21 (configuration not stated) | > 100 µM (inactive) |
| CCn1nc(C(=O)OCc2cccc(S(=O)(=O)N(C)C)c2)c2ccccc2c1=O | > 100 µM (inactive) |
| O=C(O)c1cc2ccc3ccccc3c2[nH]1 | > 100 µM (inactive) |
| COc1cccc(NC(=O)C2CCC(CNS(=O)(=O)c3cccs3)CC2)c1 (configuration not stated) | > 100 µM (inactive) |
| CC1C=Cc2ccccc2N1C(=O)c1ccccc1 (configuration not stated) | > 100 µM (inactive) |
| Cc1cc(Br)ccc1SCC(=O)OCC(=O)NCc1ccco1 | > 100 µM (inactive) |
| CCn1nc(C)cc1C(=O)N1CCCC(C(=O)c2ccc3ccccc3c2)C1 (configuration not stated) | > 100 µM (inactive) |
| CC1CCCN(C(=O)C(C)Nc2cc(Cl)ccc2N2CCOCC2)C1 (configuration not stated) | > 100 µM (inactive) |
| COc1ccc2nc(SCC(=O)Nc3ccccc3)[nH]c2c1 | > 100 µM (inactive) |
| COc1ccc(OC)c(-c2nn(-c3ccccc3)cc2C(=O)N2CCc3ccccc3C2)c1 | > 100 µM (inactive) |
| CC(=O)N1CCOc2ccc(S(=O)(=O)N(C)c3ccc(C)cc3)cc21 | > 100 µM (inactive) |
| CSc1ccccc1NC(=O)CN(c1cccc(C)c1)S(C)(=O)=O | > 100 µM (inactive) |
| COc1ccc(OC2C(=O)N(Cc3ccc4c(c3)OCO4)C2c2sccc2C)cc1 (configuration not stated) | > 100 µM (inactive) |
| COc1cccc(NC2=Nc3cccc4cccc2c34)c1 | > 100 µM (inactive) |
| CC(C(=O)Nc1nc2ccccc2s1)n1cc([N+](=O)[O-])cn1 (configuration not stated) | > 100 µM (inactive) |
| c1cncc(-c2nc3cc4ccccc4cc3[nH]2)c1 | > 100 µM (inactive) |
| CN(C)CCN(C(=O)c1ccc2c(c1)CCCC2)c1nc2c(F)cccc2s1 | > 100 µM (inactive) |
| COc1cc(SC)ccc1C(=O)N1CCN(c2ccccc2F)CC1 | > 100 µM (inactive) |
